Key:
[1] = children suffering from ADHD; Clin. Pharmacol. Ther. 52: 561-568 (1992); cited from earlier work
[2] = D-threo vs DL-threo methylphenidate vs placebo in patients in the context of ADD: objective tests and subjective observations; format: in vivo, human; conditions: for performance in objective tests: at the 6 hour time point, versus DL-threo racemate or placebo
From the text: The present inventors have observed that in the context of ADD, D-threo methylphenidate has a longer duration of action than DL-methylphenidate of at least six hours.
Response by patients with cognitive deficiencies described herein is generally determined by two types of measurements: objective measures of a patient's ability to concentrate and remain focused on a task such as performing a math test; and subjective scores of a patient's performance.

[3] = cited from earlier work

| Compound | pharmacodynamic activity / pharmacological effectiveness [1] | persistence of beneficial effects ([2]; D-threo isomer alone versus in combination with the L-threo isomer) | performance in objective tests [2] | subjective observations: duration of beneficial effects ([2]; same patients, versus DL-threo racemate) | euphoric effect / potential for abuse ([3]; administered intravenously or through inhalation or ingestion) | undesirable side effects ([3]; use of the racemate) |
| --- | --- | --- | --- | --- | --- | --- |
| COC(=O)[C@@H](c1ccccc1)[C@@H]1CCCCN1 (single isomer, unassigned) [L isomer, L-threo-methylphenidate, reference compound] | apparently makes no significant contribution to the pharmacological effectiveness of the drug | – | – | – | – | – |
| COC(=O)[C@H](c1ccccc1)[C@H]1CCCCN1 [D-threo methylphenidate, D-threo-methylphenidate] | pharmacodynamic activity of DL-threo-methylphenidate resides in the D-threo isomer | persist for a longer period time when the D-threo isomer is administered alone than when it is administered in combination with the L-threo isomer | performed better in objective tests than patients who received the DL-threo racemate or a placebo | experienced beneficial effects of the drug for longer times than did those who received the DL-threo racemate | – | – |
| COC(=O)C(c1ccccc1)C1CCCCN1 (racemic) [DL-threo racemate, DL-threo-methylphenidate] | – | – | did not perform better after that time period than those who received a placebo | – | produces a euphoric effect | anorexia, weight loss, insomnia, dizziness and dysphoria |
